Earlier results, collected in US11931445B2, “Composition comprising baicalin” (L'OREAL, priority 2016, dated 2024).

Assays:
[1] = pH more than 6.5

Baicalin
solubility in an aqueous medium: very slightly soluble | chemical stability [1]: chemically unstable
